Assay results taken from the supplement of paper PMC10307832.

Tests used:
Assay in all cases: relative viability (nuclei count vs DMSO), 5 days (fraction); higher = more cells survive
[1] = compound: CC1=CC(=CC=C1)NC2=NC(=CS2)C3=CC=NC=C3 + CC(=O)c1c(C)c2cnc(Nc3ccc(N4CCNCC4)cn3)nc2n(C2CCCC2)c1=O [Palbociclib] (partner 0.5 µM)
How it was run: (§1)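 Relative viability divides the nuclei count in treated wells by that in vehicle wells. Lung cancer cell lines were seeded in 1536-well plates, dosed by pin tool the next day, and fixed and stained after 5 days in one step with final 0.05% Triton X-100, 1% formaldehyde and 1 ug/ml Hoechst. Dosing was a single drug or a fixed anchor-drug dose plus five library-drug doses (not always all listed) in √10 steps, and values are medians of duplicate plates imaged at 4×.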

[2] = compound: CC1=CC(=CC=C1)NC2=NC(=CS2)C3=CC=NC=C3 + Nc1ncn([C@H]2C[C@H](O)[C@@H](CO)O2)c(=O)n1 [Decitabine] (partner 2 µM)
How it was run: as §1

[3] = compound: CC1=CC(=CC=C1)NC2=NC(=CS2)C3=CC=NC=C3 + Cc1nc(Nc2ncc(C(=O)Nc3c(C)cccc3Cl)s2)cc(N2CCN(CCO)CC2)n1 [Dasatinib] (partner 0.075 µM)
How it was run: as §1

Masitinib + Alpelisib = compound: Cc1ccc(NC(=O)c2ccc(CN3CCN(C)CC3)cc2)cc1Nc1nc(-c2cccnc2)cs1 [Masitinib] + Cc1nc(NC(=O)N2CCC[C@H]2C(N)=O)sc1-c1ccnc(C(C)(C)C(F)(F)F)c1 [Alpelisib] (partner 2 µM)
How it was run: as §1

For UMC-11, the relative viability ([1]; first compound 0.08 µM) was 0.339, the relative viability ([1]; first compound 0.253 µM) was 0.311 and the relative viability ([1]; first compound 0.8 µM) was 0.305. The relative viability ([1]; first compound 2.53 µM) was 0.334, the relative viability ([1]; first compound 8 µM) was 0.313 and the relative viability ([2]; first compound 0.08 µM) was 0.56. It also gave a relative viability ([2]; first compound 0.253 µM) of 0.552, a relative viability ([2]; first compound 0.8 µM) of 0.572 and a relative viability ([2]; first compound 2.53 µM) of 0.626. For the same cell line, the relative viability ([2]; first compound 8 µM) was 0.714, the relative viability ([3]; first compound 0.08 µM) was 0.477 and the relative viability ([3]; first compound 0.253 µM) was 0.494. For the same cell line, the relative viability ([3]; first compound 0.8 µM) was 0.468, the relative viability ([3]; first compound 2.53 µM) was 0.481 and the relative viability ([3]; first compound 8 µM) was 0.534. It also gave a relative viability (Masitinib + Alpelisib; first compound 0.01 µM) of 0.899, a relative viability (Masitinib + Alpelisib; first compound 0.03162 µM) of 0.713 and a relative viability (Masitinib + Alpelisib; first compound 0.1 µM) of 1.12. For the same cell line, the relative viability (Masitinib + Alpelisib; first compound 0.3162 µM) was 1.17 and the relative viability (Masitinib + Alpelisib; first compound 1 µM) was 1.2.
